In series [1] the target is acetylcholine esterase (AChE) (Homo sapiens, UniProt P22303). In words: Acetylcholine esterase inhibitory activity test. In kind it is biochemical. The following applies: 1000 nM; FIG. 11. The text has this:
Most of existing therapeutic agents for Alzheimer's disease have, as a target mechanism, the inhibitory activity for an acetylcholine esterase which is an enzyme for decomposing acetylcholine as a neurotransmitter. Namely, by inhibiting an acetylcholine esterase, the therapeutic agents for Alzheimer's disease increase an in vivo concentration of acetylcholine.

In a further series the test system is NGF gene. In words: NGF gene expression in culture astrocyte (real time PCR). The format is cell-based, mouse. The conditions noted are these: 25 μM; from 8 hours to 24 hours after the addition; p<0.05 vs before the addition; calibrated to GAPDH. On the procedure:
By adding the cyclic peptide derivative of 25 μM to an astrocyte of the secondary subculture, the influence on expression of the gene of NGF, GDNF, VFGF-A, BDNF, and VGF as a representative neurotrophic factor was determined over time.
Except that a cell suspension of an astrocyte of the secondary subculture was prepared to have cell concentration of 3×10^5 cells/ml and the time for exposing the astrocyte to the above 25 μM cyclic peptide derivative was set at 0, 1, 2, 4, 8, 12, and 24 hours, the astrocyte was cultured in the same order as above <6>. As a control group, LG-D-MEM (0% FBS) not added with any cyclic peptide derivative was used.
Each astrocyte which has been exposed to the cyclic peptide derivative during each time described above was collected, and then, by using RNeasy Mini Kit (QIAGEN), extraction and purification of total RNA were carried out. The extracted total RNA was quantified by using Nano Photometer (IMPLEN). For the reverse transcription reaction, cDNA was synthesized by reacting 500 ng of total RNA with PrimeScript RT Master Mix (TaKaRa) at 37° C. for 15 minutes using GeneAmp PCR System 9600 (PERKIN ELMER), and the reaction was terminated by heating for 5 seconds at 85° C. […]

Series [2] relates to senescence-accelerated model mouse SAMP8. Put plainly: Morris water maze test. In kind it is in vivo. The conditions noted are these: SAMP8, oral 25 μg/kg/day; vs SAMP8; p<0.05. From the text:
As a mouse for an in vivo test of the cyclic peptide derivative, senescence-accelerated model mouse SAMP8 which is used as a cognitive disorder model animal of initial Alzheimer's disease accompanied with aging was selected, and as a control, SAMR1 mouse with normal aging was selected.
19-Week old male mice of SAMR1 and SAMP8 were purchased from Japan SLC, Inc., and divided into 5 groups, i.e., mouse group with normal aging (SAMR1), senescence-accelerated model mouse group (SAMP8), {P8+donepezil hydrochloride 1250 μg/kg/day} group as a positive control, and {P8+cyclic peptide derivative 2.5 μg/kg/day} group and {P8+cyclic peptide derivative 25 μg/kg/day} group as a test group. […] After 10 days of an acclimation period, all mice were provided with standard meal (MEQ, Oriental Yeast Company) and body weight of the animal was recorded everyday during the entire test period. […]
(3) {P8+donepezil hydrochloride 1250 μg/kg/day} group: As a positive control, donepezil hydrochloride (Sanyo Chemical Laboratories CO., LTD.) was dissolved in MQ and prepared to have a concentration of 1250 μg/kg (bodyweight), and then orally administered to a SAMP8 for 5 weeks by using a gastric sonde. The concentration was accurately calculated based on the bodyweight which has been measured every day. […]

The next series in a line: Water solubility. In kind it is physicochemical.

Consider one compound from patent US10654890B2, “Cyclic peptide derivative, method for preparing same and composition thereof” (priority 2014, dated 2020).

acetylcholine esterase (AChE), sequence (P22303 32-614): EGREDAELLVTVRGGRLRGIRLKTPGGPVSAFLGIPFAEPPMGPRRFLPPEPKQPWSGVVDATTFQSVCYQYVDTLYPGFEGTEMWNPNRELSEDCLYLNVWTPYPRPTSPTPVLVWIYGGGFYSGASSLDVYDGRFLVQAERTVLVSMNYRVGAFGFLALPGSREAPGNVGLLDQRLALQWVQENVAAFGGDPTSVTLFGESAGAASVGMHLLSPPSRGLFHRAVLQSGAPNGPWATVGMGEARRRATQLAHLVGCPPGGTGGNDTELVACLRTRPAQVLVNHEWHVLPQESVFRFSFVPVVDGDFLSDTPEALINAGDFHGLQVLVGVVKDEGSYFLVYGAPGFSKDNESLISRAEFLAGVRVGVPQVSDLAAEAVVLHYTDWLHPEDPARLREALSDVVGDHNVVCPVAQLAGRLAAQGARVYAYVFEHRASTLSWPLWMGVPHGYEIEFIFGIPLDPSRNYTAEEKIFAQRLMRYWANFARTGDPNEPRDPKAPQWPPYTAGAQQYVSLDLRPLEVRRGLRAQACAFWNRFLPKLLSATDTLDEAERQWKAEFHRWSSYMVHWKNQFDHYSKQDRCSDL

Consider `CCC1(C)Oc2cc(ccc2O)C(O)C(NC)C(=O)NC(C(C)C)C(=O)NC1C(=O)NC(CCC(=O)O)C(=O)O` (stereo not shown) [cyclic peptide derivative], for which the AChE inhibitory activity result in series [1] was “absolutely no AChE activity was observed”. Besides, the “expression of the gene of NGF” value with NGF gene was “increased”. For the same compound, the “spatial learning ability (time in zone (%) in quadrant 1)” value in series [2] is given as “significantly recovered”. For the same compound, the water solubility entry in the series “Water solubility” was “water soluble”.
